Test results from article PMC6985109, “Cellular apoptosis and necrosis as therapeutic targets for novel Eugenol Tosylate Congeners against Candida albicans” (Scientific Reports, 2020).
In brackets after ≈: the same amount, converted by molar mass.

Columns and labels:
[1] = system: fluconazole susceptible and resistant C. albicans strains; test: Broth microdilution antifungal susceptibility, ranges over strains; type: cell-based; details: Candida albicans; over the tested C. albicans strains
Method: In this study, 10 clinical Candida albicans isolates, comprising of 5 fluconazole susceptible and 5 fluconazole resistant, were used. C. albicans SC5314 was also used as a control laboratory strain. Clinical strains used in this study were stored at −80 °C supplemented with 20% glycerol in the Department of Clinical Microbiology and Infectious Diseases, University of the Witwatersrand, Johannesburg and were previously collected under the ethical clearance number M000402, obtained from the Human Research Ethics Committee, University of the Witwatersrand. For experimental purpose each strain from glycerol stock was recovered on Sabouraud Dextrose (SDA) agar plates at 37 °C for 24 h.
Minimum Inhibitory Concentration (MIC) and Minimum Fungicidal Concentrations (MFC) of all newly synthesized eugenol-tosylate congeners (ETC-1–ETC-7) against C. albicans strains were determined by broth microdilution assay in accordance with the approved guidelines described by Clinical and Laboratory Standards Institute (CLSI) guidelines M27-A[38]. The test compounds were prepared in 1% DMSO to a stock concentration of 8192 µg/ml. Two-fold dilutions of test compounds (100 µL) were prepared in 96-well flat-bottom microtiter plates, inoculated with 100 µl of inoculum (1 × 10^6 cells/mL) and incubated at 37 °C for 24 hours. In every set of experiment, positive control (fluconazole), negative vehicle control (1% DMSO) and culture control (media and cells only) were included. MIC’s were determined visibly as the lowest concentration of the test compounds that inhibited growth of test organism. To determine MFC, each well without visible growth was sub-cultured onto agar plates. Concentration in the first well with no growth on plate was taken as MFC. […] The experiment was performed in triplicate to validate the results.

[2] = system: C. albicans SC5314, C. albicans 4175 and C. albicans 5112; test: JC-10 mitochondrial membrane potential assay; type: cell-based, Candida albicans; details: 3 h, range over three strains, vs untreated control
Method: (§1) To study the effect of test compounds on apoptotic markers protoplasts were prepared as described previously, with modifications. Briefly, mid-exponential phase cells were harvested and exposed to various concentrations of test compounds (0.5 × MIC, 1 × MIC and 2×MIC) for 3 h. The cells were then washed twice with protoplast buffer- I (1 M sorbitol, 50 mM tris base, 10 mM MgCl2 and 30 mM DTT) and incubated in the same buffer for 15 minutes at 25 °C, followed by centrifugation at 1500 rpm for 5 minutes. Supernatant was removed and cells were incubated with buffer- II (1 M sorbitol, 50 mM tris base, 10 mM MgCl2 and 1 mM DTT) supplemented with lyticase enzyme (≥1 µg/mL) used to digest the cell wall for 1 h at 25 °C. Buffer- II were removed by centrifugation and then cells were incubated with buffer- III (1 M sorbitol, 50 mM tris base and 10 mM MgCl2) for 20 minutes at room temperature. After the incubation cells were again centrifuged at 1500 rpm for 5 minutes and supernatant was discarded. Protoplasts then finally washed once with PBS and re-suspended in the same for further use. In each washing steps the volume of these protoplast buffers were 5 times to cell volume with pH 7.4.
For the detection of mitochondrial membrane potential changes in cells exposed with different concentrations of active tosylate congeners, the JC-10 mitochondrial membrane potential assay kit–microplate (abcam, Cambridge, UK) was used according to the manufacturer’s instructions. Protoplasts were prepared as described above at a concentration of 1 × 10^6 cells/ml. 90 µl of this suspension was added to each well in 96-well microplate (with black wall and clear bottom) followed by addition of 50 µl/well JC-10 dye-loading solution. […] Fluorescence intensity were monitored at Ex/Em = 490/525 nm and 540/590 nm with a BioTek Synergy HT microplate reader (BioTek Instruments, WA, USA) for ratio analysis. The ratio between aggregate (Em = 525 nm) and monomeric forms (Em = 590 nm) of JC-10, were measured to find the change in mitochondrial membrane potential. […]

[3] = system: cytochrome c oxidase activity in C. albicans SC5314, C. albicans 4175 and C. albicans 5112; test: Cytochrome c oxidase activity in mitochondria of treated cells; type: cell-based, Candida albicans; details: 3 h, range over three strains
Method: as §1
After the cells were exposed to different concentrations of test compounds as mentioned above, mitochondria of the cells were isolated using Yeast Mitochondria Isolation Kit- MITOISO3 (Sigma – Aldrich St. Louis, MO, U.S.A.). Cytochrome c oxidase assay kit (ScienCell, Cat. No. 8278, CA, USA) was used to detect the cytochrome c oxidase activity. In all procedures, kits were used according to the manufacturer’s instructions. Briefly, prepared spheroplasts were followed by homogenization to release the mitochondria. Homogenate was centrifuged in 1X storage buffer (1 ml) at 6,500 × g for 10 minutes at 2–8 °C. […] Protein concentration was determined by using TCA Lowry method. […] Immediately change in absorbance of cytochrome c was measured at 550 nm on a kinetic program (duration 30 seconds, interval 5 seconds) by using UV-1800 SHIMADZU spectrophotometer (Shimadzu Corporation, Japan).

C=CCc1ccc(OS(=O)(=O)c2ccc(C(=O)O)cc2)c(OC)c1 [ETC-7, 4-{[2-methoxy-4-(prop-2-en-1-yl)phenoxy]sulfonyl}benzoic acid]
MFC [1]: 2 to 8 µg/mL (≈ 5.74 to 23 µM)
MIC [1]: 1 to 4 µg/mL (≈ 2.87 to 11.5 µM)
decrease in mitochondrial membrane potential ([2]; 0.5 × MIC): 1.04–1.58 folds
decrease in mitochondrial membrane potential ([2]; 1 × MIC): 1.56–2.62 folds
decrease in mitochondrial membrane potential ([2]; 2 × MIC): 3.55–4.46 folds
cytochrome c oxidase enzyme activity decreased up to ([3]; 0.5 × MIC): 11.33–18.07%
cytochrome c oxidase enzyme activity decreased up to ([3]; 1 × MIC): 9.20–13.92%
cytochrome c oxidase enzyme activity decreased up to ([3]; 2 × MIC): 5.21–9.88%
